Several values for one entry are separate records, joined by “and”; a condition that tells them apart may be missing. Identical values can stand only once. Counter-ions that a name gives are not always drawn. Like-named read-outs stand apart in the source and are kept apart here.
Columns and labels:
[1] = tested on: Aeromonas hydriphila HG3 (RV 5.1); settings: Microbial Toxic Concentration, incubation time 16 h
Protocol: (§1) • dispense 150 μl of growth medium with indicator in each well • add a concentration gradient of the chemical to be tested to rows B-H in a MARA plate (i.e. an indicator device according to the present invention) • incubate for 16 h • read absorbance values; and • analyse with software.
(§2) Microbial responses to different chemicals was estimated by kinetic measurements of their growth using the Labsystem automated IEMS reader. A computer software that could monitor incubation temperatures, reading intervals, and automatically transfer OD data to a computer was developed. A growth medium containing 0.05% peptone, 0.011% bromothymol blue (BTB), 1% sodium chloride and 0.3% glucose was added to all wells. The glucose acts as a carbon source, and during growth the microorganism will break down the glucose and produce acids, that will turn the initially blue indicator to yellow. Each microplate contains 12 columns and 8 rows, and thus in each plate, 11 lyophilized microbial strains were used (one for each column, the 12th column was used as negative control). […] In order to avoid drying out of the plates during the incubation, one drop of sterile mineral oil was added to each well. The plate was then incubated in the IEMS spectrophotometer and the absorbance value from each well was measured every second hour during 48 h.
(§3) The overall toxicity of the chemical compound can be described either as the mean of all 11 MTC values (shown in column 12), or as the minimum value for all 11 microbial strains used in the assay (marked with bold in the table).

[2] = tested on: JG1 (strain of marine origin); settings: Microbial Toxic Concentration, incubation time 16 h
Protocol: as §1, §2, §3

[3] = tested on: JG2 (strain of marine origin); settings: Microbial Toxic Concentration, incubation time 16 h
Protocol: as §1, §2, §3

[4] = tested on: JG4 (strain of marine origin); settings: Microbial Toxic Concentration; incubation time 16 h
Protocol: as §1, §2, §3

ObanF = settings: Microbial Toxic Concentration; incubation time 16 h
Protocol: as §1, §2, §3

[5] = tested on: Saccaromyces ceriviciae (bakers yeast); settings: Microbial Toxic Concentration, incubation time 16 h
Protocol: as §1, §2, §3

[6] = tested on: JG3 (strain of marine origin); assay: MARA indicator device toxic fingerprint, microorganism no. 3; settings: Microbial Toxic Concentration; incubation time 16 h
Protocol: as §1, §2, §3

[7] = tested on: β-proteobacterium A22 (Kalmar 200); assay: MARA indicator device toxic fingerprint, microorganism no. 5; settings: Microbial Toxic Concentration, incubation time 16 h
Protocol: as §1, §2, §3

microorganism no. 7 = assay: MARA indicator device toxic fingerprint, microorganism no. 7; settings: Microbial Toxic Concentration, incubation time 16 h
Protocol: as §1, §2, §3

E. coli MZ 480 = assay: MARA indicator device toxic fingerprint, microorganism no. 8; settings: Microbial Toxic Concentration, incubation time 16 h
Protocol: as §1, §2, §3

[8] = tested on: Staphylococcus epidermidis (Karin12); assay: MARA indicator device toxic fingerprint, microorganism no. 11; settings: Microbial Toxic Concentration, incubation time 16 h
Protocol: as §1, §2, §3

[9] = tested on: 11 different microbial strains; settings: for Toxic fingerprint: MTC value, Mean: mean of all 11 MTC values
Protocol: as §1, §2, §3
Concentrations are given in mg/ml.

Daphnia = settings: IC50-values, established assay; cited from earlier work
[10] = tested on: Photobacterium phosphoreum; settings: IC50-values, established assay; cited from earlier work
E. coli = settings: IC50-values, established assay; cited from earlier work
[11] = MTC value of the strain showing the highest sensitivity
[12] = mean MTC for the 11 microbial strains
[13] = 11 microbial strains (panel, species not named)

Compound	Toxic fingerprint: MTC value for microorganism no. 6 [1]	Toxic fingerprint: MTC value for microorganism no. 1 [2]	Toxic fingerprint: MTC value for microorganism no. 2 [3]	Toxic fingerprint: MTC value for microorganism no. 4 [4]	Toxic fingerprint: MTC value for microorganism no. 9 (ObanF)	Toxic fingerprint: MTC value for microorganism no. 10 [5]	Toxic fingerprint: MTC value for microorganism no. 3 [6]	Toxic fingerprint: MTC value for microorganism no. 5 [7]	Toxic fingerprint: MTC value for microorganism no. 7 (microorganism no. 7)	Toxic fingerprint: MTC value for microorganism no. 8 (E. coli MZ 480)	Toxic fingerprint: MTC value for microorganism no. 11 [8]	Toxic fingerprint: MTC value, Mean [9]	Inhibitory concentrations by method: MARA MTCmin [9, 11]	Inhibitory concentrations by method: MARA MTCmean [9, 12]	Inhibitory concentrations by method: Daphnia (Daphnia)	Inhibitory concentrations by method: Microtox [10]	Inhibitory concentrations by method: E. coli (E. coli)	also measured
[Cl-].[K+] [Potassium Chloride]	27.100	28.200	29.400	17.000	65.400	16.000	10.600	20.100	67.300	62.300	31.300	29.800						
O=[N+]([O-])[O-].O=[N+]([O-])[O-].[Ba+2] [Barium nitrate]	0.713	2.520	0.205	5.620	1.490	0.453	0.908	1.090	1.110	1.360	0.466	1.420	0.453 mg/mL	1.420 mg/mL	0.208 mg/mL	29.318 mg/mL		mean toxicity levels (MTC values) ([9]; text to FIG. 7): 1.4 mg/L
[F-].[Na+] [Sodium Fluoride]		3.290 and 2.220	2.660 and 2.930	6.040 and 6.560	22.700 and 20.100	5.650 and 4.130		9.500 and 15.000	6.450 and 7.890	11.400 and 14.600		6.930 and 9.170	4.890 mg/mL	8.050 mg/mL	0.636 mg/mL	9.843 mg/mL	10.547 mg/mL	
OCCO [Ethylene Glycol]															74.625 mg/mL	167.064 mg/mL	270.945 mg/mL	Inhibitory concentrations by method: MARA MTCmin [9]: 11.775 mg/mL; Inhibitory concentrations by method: MARA MTCmean [9, 13]: 28.400 mg/mL
C=CC(N)=O [Acryl amide]	2.480 and 2.810	0.965 and 0.853	2.440 and 1.810	2.100 and 2.510	13.900 and 11.000	6.620 and 6.970	4.280 and 3.370	5.740 and 3.240		17.700 and 23.300	8.300 and 10.300	4.700 and 4.690						Toxic fingerprint: MTC value for microorganism no. 1 ([2]; listed as acrylamid): 0.9; Toxic fingerprint: MTC value for microorganism no. 8 (E. coli MZ 480; listed as acrylamid): 20
CSc1ccc2c(c1)N(CCC1CCCCN1C)c1ccccc1S2 (centres unmarked) [Tioridazin HCl]	0.027		0.017			0.014		0.029	0.042	0.006	0.006	0.028	0.006 mg/mL	0.028 mg/mL				
CN1[C@@H]2CC[C@H]1CC(OC(=O)C(CO)c1ccccc1)C2.CN1[C@@H]2CC[C@H]1CC(OC(=O)C(CO)c1ccccc1)C2.O=S(=O)(O)O (some centres unmarked) [Atropin Sulphate]															0.347 mg/mL		56.294 mg/mL	
Oc1ccccc1 [Phenol]															0.007 mg/mL	0.133 mg/mL	2.258 mg/mL	Inhibitory concentrations by method: MARA MTCmin [9]: 0.412 mg/mL; Inhibitory concentrations by method: MARA MTCmean [9, 13]: 0.831 mg/mL
Cc1ccccc1C(OCCN(C)C)c1ccccc1 (centres unmarked) [Orphenadrin HCl]																		Toxic fingerprint: MTC value, Mean ([9]; HCl): 0.131 and 0.146
C[C@H]1O[C@@H](O[C@H]2[C@@H](O)C[C@H](O[C@H]3[C@@H](O)C[C@H](O[C@H]4CC[C@@]5(C)[C@H](CC[C@@H]6[C@@H]5C[C@@H](O)[C@]5(C)[C@@H](C7=CC(=O)OC7)CC[C@]65O)C4)O[C@@H]3C)O[C@@H]2C)C[C@H](O)[C@@H]1O [Digoxin]	0.531	1.040	0.937	0.942	0.201	2.510	0.481	0.927	0.921	0.310	0.104	0.8 and 0.770	0.104 mg/mL	0.770 mg/mL	0.192 mg/mL	1.129 mg/mL		
Cn1c(=O)c2c(ncn2C)n(C)c1=O [Caffeine]	2.190		1.010			0.790		0.973	2.930	3.430	6.060	2.250	0.788 mg/mL	2.085 mg/mL	0.158 mg/mL	2.129 mg/mL	15.426 mg/mL	Toxic fingerprint: MTC value for microorganism no. 6 ([1]; listed as Coffein): 1.300; Toxic fingerprint: MTC value for microorganism no. 2 ([3]; listed as Coffein): 1.080; Toxic fingerprint: MTC value for microorganism no. 10 ([5]; listed as Coffein): 0.785; Toxic fingerprint: MTC value for microorganism no. 5 ([7]; listed as Coffein): 3.550; Toxic fingerprint: MTC value for microorganism no. 7 (microorganism no. 7; listed as Coffein): 1.510; Toxic fingerprint: MTC value for microorganism no. 8 (E. coli MZ 480; listed as Coffein): 3.500; Toxic fingerprint: MTC value for microorganism no. 11 ([8]; listed as Coffein): 2.310; Toxic fingerprint: MTC value, Mean ([9]; listed as Coffein): 1.920
[Cl-].[Cl-].[Mg+2] [Magnesium Chloride]	13.500	28.800	9.660	7.500	8.830	22.700	7.420	14.800	12.100	24.100	4.580	13.900						
[N-]=[N+]=[N-] [Sodium Azide]	0.082	0.025	0.045	0.088	2.000	0.106	0.056	0.054	0.126	0.592	0.146	0.111						
